For data set [1], the system named is SARS-CoV-2. Conditions: Gassen et al. (2020); read-out: IC50 against SARS-CoV-2; cited from earlier work.
Data set [2] in a line: Solubilization and dispersion of niclosamide by OHPP. Conditions: 2.5 mg/mL niclosamide in phosphate buffer.
For data set [3] the following is noted: cited from earlier work.
The test system of data set [4] is SARS-CoV-2. In words: Anti-SARS-CoV-2 efficacy in Vero cells (Jeon et al. 2020). Type of data set: cell-based. Conditions: Severe acute respiratory syndrome coronavirus 2, Vero; for IC90: read-out: IC90 against SARS-CoV-2.
A further data set has as its target T1, TMEM16F/Anoctamin6 (Homo sapiens, UniProt Q4KMQ2).
T1 sequence (Q4KMQ2 1-910): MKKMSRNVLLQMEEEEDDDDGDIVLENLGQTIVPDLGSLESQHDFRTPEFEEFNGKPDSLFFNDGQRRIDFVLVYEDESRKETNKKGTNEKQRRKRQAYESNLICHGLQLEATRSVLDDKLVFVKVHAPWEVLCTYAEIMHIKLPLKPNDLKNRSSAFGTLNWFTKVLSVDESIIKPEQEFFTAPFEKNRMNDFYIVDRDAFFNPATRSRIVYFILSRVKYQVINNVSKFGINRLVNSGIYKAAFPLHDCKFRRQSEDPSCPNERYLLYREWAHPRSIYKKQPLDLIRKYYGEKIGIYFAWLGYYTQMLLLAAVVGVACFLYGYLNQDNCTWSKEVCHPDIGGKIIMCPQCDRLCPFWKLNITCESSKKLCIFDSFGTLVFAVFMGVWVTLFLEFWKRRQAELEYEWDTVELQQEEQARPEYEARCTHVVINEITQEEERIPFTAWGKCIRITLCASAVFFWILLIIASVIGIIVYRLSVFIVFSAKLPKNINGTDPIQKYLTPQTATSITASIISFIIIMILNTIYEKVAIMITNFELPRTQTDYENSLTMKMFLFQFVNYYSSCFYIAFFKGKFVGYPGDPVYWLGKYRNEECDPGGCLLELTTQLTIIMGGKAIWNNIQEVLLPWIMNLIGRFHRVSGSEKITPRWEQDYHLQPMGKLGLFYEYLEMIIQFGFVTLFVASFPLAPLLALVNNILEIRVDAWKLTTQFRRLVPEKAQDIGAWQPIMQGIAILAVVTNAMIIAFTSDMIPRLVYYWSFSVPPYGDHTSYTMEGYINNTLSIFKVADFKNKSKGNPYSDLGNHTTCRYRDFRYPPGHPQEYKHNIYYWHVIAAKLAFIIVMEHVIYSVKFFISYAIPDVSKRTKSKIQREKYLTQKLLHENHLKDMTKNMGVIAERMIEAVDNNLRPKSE
Conditions: Spike-expressing cells; cited from earlier work.

The test system of data set [5] is prostate cancer cell (PC-3). In words: Inhibitory efficacy against prostate cancer cell PC-3. It counts as cell-based. Conditions: estimated from dose-efficacy curve, FIG. 7.
The conditions of data set [6]: phosphate buffer, depending on temperature of measurement; cited from earlier work.
For data set [7] the following is noted: rats, single oral dose 5 mg/kg, dissolved in DMSO/cremophor EL/water 3/15/82; cited from earlier work.
Data set [8] relates to SARS-CoV-2. In words: microbe, parasite or virus in culture. It counts as cell-based. Conditions: Severe acute respiratory syndrome coronavirus 2; Gassen et al. (2020); read-out: IC50 against SARS-CoV-2.
For data set [9] the following is noted: cited from earlier work. The source holds these as a separate data set.

pIC50: −log10 of the molar value. Converted amounts (≈) assume the structure as drawn. Where two headings read alike, the source gives them in different places.

As a reminder, the pIC50 is −log10 of the IC50, conventionally taken in molar units. By IC90 is commonly meant the concentration needed for an effect of 90%. What is called IC50 is the concentration at which inhibition is half-maximal. In general, solubility refers to how much of the substance goes into solution per volume.

For `O=C(Nc1ccc([N+](=O)[O-])cc1Cl)c1cc(Cl)ccc1O` [niclosamide, 2′,5-Dichloro-4′-nitrosalicylanilide], the pIC50 in the data set with SARS-CoV-2 [1] is 6.77. Further, in data set [2], the appearance of dispersion entry was “did not dissolve and showed heavy clouds and precipitates”. The BCS solubility result in [3] was “low solubility”. Further, the solubility definition entry in [3] (delMoral-Sanchez et al., 2019) is given as “practically insoluble”. Besides, the IC90 in the data set with SARS-CoV-2 [4] (read from FIG. 2 (Jeon et al. 2020)) is roughly 700 nM; in the data set with SARS-CoV-2 [4], roughly 0.229 µg/mL. Moreover, the IC50 was 0.092 µg/mL (≈ 0.281 µM) with SARS-CoV-2 [4] (read-out: IC50 against SARS-CoV-2), 5.93 µg/mL (≈ 18.1 µM) in data set [5] and 0.056 µg/mL (≈ 0.171 µM) in the data set with SARS-CoV-2 [8]. For the same compound, at TMEM16F/Anoctamin6, the “effect on calcium oscillations and membrane conductances through TMEM16F” value is “markedly blunted calcium oscillations and membrane conductances”. The solubility in [6] is 0.3 to 1.14 µg/mL. For the same compound, in [7], the “highest plasma concentration (Cmax)” value is 354 ± 152 ng/mL. Besides, the maximal plasma concentration in [9] (500 mg TID) was 35.7 to 182 ng/mL. Further, in [9] (500 or 1000 mg TID oral, 4 weeks), the side effects entry is on record as “mostly associated with the GI tract”. Moreover, the “maximal plasma concentration, highest level reached” value in data set [9] (500 or 1000 mg TID, 4 weeks) is 182 ng/mL.

The values are drawn from patent publication US20230293573A1 (priority 2020, published 2023).
